Measurements as given in US4335249A, “Herbicidal diphenyl ethers, sulfides, sulfoxides and sulfones” (Rohm and Haas Company, priority 1976, dated 1982).

How the values were obtained:
Type in all cases: in vivo
[1] = tested on: barnyardgrass (Echinochloa crusgalli); experiment: Postemergence herbicidal activity, barnyardgrass; conditions: Echinochloa crus-galli, post-emergence, 336 h, Post; for pest or weed control at 2241.7 g/ha: 2 lb/A
Method in brief: (§1)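 Seeds were sown in soil flats and sprayed either immediately after planting (preemergence) or two weeks after germination (postemergence). The test compound was dissolved in acetone, diluted with water and applied at a carrier volume equivalent to 50 gallons per acre, dosed in pounds per acre (lb/A).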

[2] = tested on: downybrome (Bromus tectorum); experiment: Preemergence herbicidal activity, downybrome; conditions: Pre
Method in brief: (§2)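 For postemergence testing, seedlings grow two weeks in soil flats before spraying; for preemergence testing, flats are sprayed just after sowing. Application uses acetone stock diluted in water, 50 gal/acre carrier volume, stated lb/A rate. Control recorded as mean percent killed roughly two weeks later.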

[3] = tested on: velvetleaf (Abutilon theophrasti); experiment: Preemergence herbicidal activity, velvetleaf; conditions: Abutilon theophrasti, pre-emergence, 336 h, Pre; for pest or weed control at 2241.7 g/ha: 2 lb/A
Method in brief: as §2

[4] = tested on: tomato (Lycopersicon esculentum); experiment: Preemergence herbicidal activity, tomato; conditions: Solanum lycopersicum, pre-emergence, 336 h, Pre; for pest or weed control at 2241.7 g/ha: 2 lb/A
Method in brief: as §2

marigold (Tagetes spp.) [5] = experiment: Preemergence herbicidal activity, marigold; conditions: pre-emergence, 336 h; for pest or weed control at 2241.7 g/ha: 2 lb/A
Method in brief: as §2

[6] = tested on: yellow nutsedge (Cyperus esculentus); experiment: Postemergence herbicidal activity, yellow nutsedge; conditions: Cyperus, post-emergence, 336 h; for pest or weed control at 2241.7 g/ha: 2 lb/A
Method in brief: as §2

[7] = tested on: velvetleaf (Abutilon theophrasti); experiment: Postemergence herbicidal activity, velvetleaf
Method in brief: as §1

wild oats (Avena fatua) [8] = experiment: Preemergence herbicidal activity, wild oats; conditions: Pre
Method in brief: as §2

[9] = tested on: yellow nutsedge (Cyperus esculentus); experiment: Preemergence herbicidal activity, yellow nutsedge; conditions: Cyperus, pre-emergence, 336 h; for pest or weed control at 2241.7 g/ha: 2 lb/A
Method in brief: as §2

wild oats (Avena fatua) [10] = experiment: Postemergence herbicidal activity, wild oats; conditions: Post
Method in brief: as §2

[11] = tested on: barnyardgrass (Echinochloa crusgalli); experiment: Preemergence herbicidal activity, barnyardgrass; conditions: Echinochloa crus-galli, pre-emergence, 336 h, Pre; for pest or weed control at 2241.7 g/ha: 2 lb/A
Method in brief: as §1

[12] = tested on: downybrome (Bromus tectorum); experiment: Postemergence herbicidal activity, downybrome; conditions: Post
Method in brief: as §2

foxtail (Setaria spp.) [13] = experiment: Preemergence herbicidal activity, foxtail; conditions: Setaria, pre-emergence, 336 h, Pre; for pest or weed control at 2241.7 g/ha: 2 lb/A
Method in brief: as §2

[14] = tested on: cocklebur (Xanthium pensylvanicum); experiment: Postemergence herbicidal activity, cocklebur
Method in brief: as §2

[15] = tested on: cocklebur (Xanthium pensylvanicum); experiment: Preemergence herbicidal activity, cocklebur; conditions: Xanthium strumarium, pre-emergence, 336 h; for pest or weed control at 2241.7 g/ha: 2 lb/A
Method in brief: as §2

[16] = tested on: morningglory (Ipomoca spp.); experiment: Postemergence herbicidal activity, morningglory
Method in brief: as §2

foxtail (Setaria spp.) [17] = experiment: Postemergence herbicidal activity, foxtail; conditions: Setaria, post-emergence, 336 h, Post; for pest or weed control at 2241.7 g/ha: 2 lb/A
Method in brief: as §2

[18] = tested on: tomato (Lycopersicon esculentum); experiment: Postemergence herbicidal activity, tomato; conditions: Post
Method in brief: as §2

[19] = tested on: morningglory (Ipomoca spp.); experiment: Preemergence herbicidal activity, morningglory
Method in brief: as §2

marigold (Tagetes spp.) [20] = experiment: Postemergence herbicidal activity, marigold
Method in brief: as §2

[21] = Bromus tectorum, pre-emergence, 336 h, 2 lb/A
[22] = Abutilon theophrasti, post-emergence, 336 h, 2 lb/A
[23] = Avena fatua, pre-emergence, 336 h, 2 lb/A, read-out: % control, Wild oat
[24] = Avena fatua, post-emergence, 336 h, 2 lb/A, read-out: % control, Wild oat
[25] = Bromus tectorum, post-emergence, 336 h, 2 lb/A
[26] = Xanthium strumarium, post-emergence, 336 h, 2 lb/A
[27] = Ipomoea, post-emergence, 336 h, 2 lb/A
[28] = Solanum lycopersicum, post-emergence, 336 h, 2 lb/A
[29] = Ipomoea, pre-emergence, 336 h, 2 lb/A

Structure (SMILES)	pest or weed control at 2241.7 g/ha [1]	pest or weed control at 2241.7 g/ha [2, 21]	pest or weed control at 2241.7 g/ha [3]	pest or weed control at 2241.7 g/ha [4]	pest or weed control at 2241.7 g/ha (marigold (Tagetes spp.) [5])	pest or weed control at 2241.7 g/ha [6]	pest or weed control at 2241.7 g/ha [7, 22]	pest or weed control at 2241.7 g/ha (wild oats (Avena fatua) [8]; [23])	pest or weed control at 2241.7 g/ha [9]	pest or weed control at 2241.7 g/ha (wild oats (Avena fatua) [10]; [24])	pest or weed control at 2241.7 g/ha [11]	pest or weed control at 2241.7 g/ha [12, 25]	pest or weed control at 2241.7 g/ha (foxtail (Setaria spp.) [13])	pest or weed control at 2241.7 g/ha [14, 26]	pest or weed control at 2241.7 g/ha [15]	pest or weed control at 2241.7 g/ha [16, 27]	pest or weed control at 2241.7 g/ha (foxtail (Setaria spp.) [17])	pest or weed control at 2241.7 g/ha [18, 28]	pest or weed control at 2241.7 g/ha [19, 29]	pest or weed control at 2241.7 g/ha (marigold (Tagetes spp.) [20]; post-emergence, 336 h, 2 lb/A)	also measured
CC(C#N)Oc1ccc(Oc2ccc(C(F)(F)F)cc2)cc1 (stereo not shown) [Example 41, 2-[4-(4-trifluoromethylphenoxy)phenoxy] propionitrile]	100%	80%	0%	0%	0%	0%	0%	70%	0%	99%	99%	40%	100%	0%	0%	0%	60%	0%	0%	0%	–
CC(Oc1ccc(Oc2ccc(C(F)(F)F)cc2Cl)cc1)C(=O)O (stereo not shown) [Example 6, 2-[4-(2-Chloro-4-trifluoromethylphenoxy)phenoxy] propionic acid]	100%	–	0%	0%	0%	0%	–	–	0%	–	100%	–	100%	–	0%	–	95%	–	–	–	% control, Downybrome ([2]; 2 lb/A): 40%; % control, Velvetleaf ([7]; Post, 2 lb/A): 20%; % control, Wild oat (wild oats (Avena fatua) [8]; 2 lb/A): 20%; % control, Wild oat (wild oats (Avena fatua) [10]; 2 lb/A): 95%; % control, Downybrome ([12]; 2 lb/A): 30%; % control, Cocklebur ([14]; Post, 2 lb/A): 50%; % control, Morningglory ([16]; Post, 2 lb/A): 40%; % control, Tomato ([18]; 2 lb/A): 80%; % control, Morningglory ([19]; Pre, 2 lb/A): 0%; % control, Marigold (marigold (Tagetes spp.) [20]; Post, 2 lb/A): 20%
CCOC(=O)C(C)Oc1ccc([S+]([O-])c2ccc(C(F)(F)F)cc2Cl)cc1 (stereo not shown) [Example 42]	–	–	–	–	–	–	–	–	–	–	–	–	–	–	–	–	–	–	–	–	pest or weed control at 4483.4 g/ha ([1]; 4 lb/A): 0%; pest or weed control at 4483.4 g/ha ([2]; Bromus tectorum, pre-emergence, 336 h, 4 lb/A): 40%; pest or weed control at 4483.4 g/ha ([3]; 4 lb/A): 40%; pest or weed control at 4483.4 g/ha ([4]; 4 lb/A): 0%; pest or weed control at 4483.4 g/ha (marigold (Tagetes spp.) [5]; 4 lb/A): 0%; pest or weed control at 4483.4 g/ha ([6]; 4 lb/A): 0%; pest or weed control at 4483.4 g/ha ([7]; Abutilon theophrasti, post-emergence, 336 h, 4 lb/A): 0%; pest or weed control at 4483.4 g/ha (wild oats (Avena fatua) [8]; Avena fatua, pre-emergence, 336 h, 4 lb/A, read-out: % control, Wild oat): 20%; pest or weed control at 4483.4 g/ha ([9]; 4 lb/A): 0%; pest or weed control at 4483.4 g/ha (wild oats (Avena fatua) [10]; Avena fatua, post-emergence, 336 h, 4 lb/A, read-out: % control, Wild oat): 0%; pest or weed control at 4483.4 g/ha ([11]; 4 lb/A): 95%; pest or weed control at 4483.4 g/ha ([12]; Bromus tectorum, post-emergence, 336 h, 4 lb/A): 0%; pest or weed control at 4483.4 g/ha (foxtail (Setaria spp.) [13]; 4 lb/A): 99%; pest or weed control at 4483.4 g/ha ([14]; Xanthium strumarium, post-emergence, 336 h, 4 lb/A): 0%; pest or weed control at 4483.4 g/ha ([15]; 4 lb/A): 0%; pest or weed control at 4483.4 g/ha ([16]; Ipomoea, post-emergence, 336 h, 4 lb/A): 0%; pest or weed control at 4483.4 g/ha (foxtail (Setaria spp.) [17]; 4 lb/A): 0%; pest or weed control at 4483.4 g/ha ([18]; Solanum lycopersicum, post-emergence, 336 h, 4 lb/A): 0%; pest or weed control at 4483.4 g/ha ([19]; Ipomoea, pre-emergence, 336 h, 4 lb/A): 0%; pest or weed control at 4483.4 g/ha (marigold (Tagetes spp.) [20]; post-emergence, 336 h, 4 lb/A): 0%
CCN(CC)C(=O)C(C)Oc1ccc(Oc2ccc(C(F)(F)F)cc2Cl)cc1 (stereo not shown) [Example 5]	20%	0%	0%	0%	0%	0%	20%	0%	0%	20%	60%	30%	99%	0%	0%	20%	90%	80%	0%	0%	–
CCOC(=O)CCC(C)Oc1ccc(Oc2ccc(C(F)(F)F)cc2Cl)cc1 (stereo not shown) [Example 38]	100%	0%	0%	0%	0%	0%	0%	0%	0%	99%	90%	90%	100%	0%	0%	0%	100%	0%	0%	0%	–
